# Measurements as given in patent US20120034162A1, “Fullerene Assisted Cell Penetrating Peptides” (William March Rice University, priority 2006, published 2012).
# Primed or numbered codes have the meaning given here. Ends that are not written are not given here. Baa″ = fullerene (C60, Bucky) amino acid derivative of phenylalanine; Baa = not defined here
# What was measured:
# [1] = Antioxidant properties (IC50 determined by Csixty Inc. through an established method); assay type: biochemical
# Description: A plot of inhibition as a function of concentration for peptide 27 is shown in FIG. 18 with a comparison of Baa and Trolox. […] It is unclear at the present time the reason for the slight reduction in activity between Baa and Baa-Glu-Glu-Glu-Glu-Gly-Gly-Gly-Ser-OH. Given that the peptide's aggregation in aqueous solution presumably results in the “Glu-Glu-Glu-Glu-Gly-Gly-Gly-Ser-OH” being exposed to the solution, the sequence could act as a buffer limiting electron transfer processes.
# [2] = Peptide aggregation, particle size in solution by dynamic light scattering (DLS); assay type: physicochemical; details: PBS buffer
# Experimental: (§1) Rink amide and Wang resin were obtained from Novabiochem, USA. Amino acids were purchased from Novabiochem and used as received. MALDI-TOF mass analysis was performed on a linear Protein-TOF Bruker instrument using sinipinic acid as the matrix. CD spectra were obtained on a Jasco J-700 dichrometer using 1 mm path-length quartz cells. Peptide solutions were 1.0 mg·mL^−1 solution in milliQ H2O or PBS buffer. In the case of peptides (21, 22 and 23), the pH was first adjusted to 10 to break up any aggregations and then adjusted by addition of 0.1 mM HCl until the desired pH was obtained. CD spectra were recorded in millidegrees and converted to residual molar ellipticity. TEM measurements were performed on a JEOL 2010 TEM at 200 kV. DLS Measurements were performed on the samples using an Brookhaven 90Plus submicron particle-size analyzer with HeNe laser (30 mW) that operates at […] wavelength.
# With reference back to Table 1, in order to understand the intracellular transport of the FITC functionalized Baa-peptides, 25 and Baa-Lys(FITC)-NLS (26), their particle size in solution was determined by dynamic light scattering (DLS). Three series of solutions of 24, 25 and 26 in the range of 0.125-2.0 mg/mL was prepared by weighing method. PBS buffer prepared from HPLC grade water was used as solvent and was filtered through a […] cup filter (Millipore, Express).
# [3] = test system: MDA-MB neoroblastoma cells; test: Cellular proliferation, CCK-8 assay; assay type: cell-based; details: 48 h
# Experimental: (§2) Cellular proliferation studies. Cancer cells at 5×10^4 cells/well were plated in triplicate in standard flat-bottomed 96-well tissue culture plates in the presence of fullerene peptides in PBS buffer with a final volume of 100 μL. Unless otherwise indicated, cells were grown for 48 h at 37° C. in a CO2 incubator. Relative cell growth was determined by Cell Counting Kit-8 (CCK-8) cell proliferation assay as described by the manufacturer using an automated plate reader. Results were calculated in a blinded fashion and are the means of bi or triplicate determinations.
# A similar comparison has been made with MDA-MB neoroblastoma cells (FIG. 25) using H-Baa-Lys(FITC)-NLS (26), Baa-Penetratin (29) and Baa-Glu-Glu-Glu-Glu-Gly-Gly-Gly-Ser-OH (27). […] Given that both H-Baa-Lys(FITC)-NLS and Baa-Penetratin are cationic peptides which are readily taken up by the cells the cell inhibition cannot be a function of the uptake (i.e., intracellular concentration), but must also be dependent on the sequence.
# [4] = test system: MCF-7 breast cancer cells; test: Cellular proliferation, CCK-8 assay; assay type: cell-based; details: MCF-7, 48 h, concentration given with value
# Experimental: as §2
# The effect of different Baa-peptide sequences on the cell viability of MCF-7 breast cancer cells was investigated to determine if the sequence has an effect rather than the presence of the C60. […] This is in agreement with the MTT cell viability test (see above). […] Clearly the sequence has a significant effect on the cell viability. However, it is worth noting that this may be due to either inherent differences in toxicity or differences in cellular uptake.
# [5] = test system: IMR32 cancer cell line; test: Cellular proliferation, CCK-8 assay; assay type: cell-based
# Experimental: Cellular proliferation studies. Cancer cells at 5×10^4 cells/well were plated in triplicate in standard flat-bottomed 96-well tissue culture plates in the presence of fullerene peptides in PBS buffer with a final volume of 100 μL. Unless otherwise indicated, cells were grown for 48 h at 37° C. in a CO2 incubator. Relative cell growth was determined by Cell Counting Kit-8 (CCK-8) cell proliferation assay as described by the manufacturer using an automated plate reader. Results were calculated in a blinded fashion and are the means of bi or triplicate determinations. […] This difference is possibly because the relative propensity of Baa-2HP to precipitate under acidic conditions is less than that of Baa-3HP. Thus, the formation of aggregates of Baa-3HP would cause the inhibition of cell growth. However, we cannot discount alternative factors such as the sequence and its overall charge differences. For example, the strength of the aggregate may be greater for Baa-3HP than Baa-2HP due to the stronger self-assembly forces in 3HP.
# [6] = Peptide secondary structure (CD) and appearance (TEM) as a function of pH; assay type: physicochemical; details: for Secondary structure with decreasing pH: CD spectra; for Appearance / diameter of non-fibrous particles: TEM; for diameter of non-fibrous particles: micelles at pH 4 (21), precipitate particles at pH 6 and lower (22)
# Experimental: as §1
# Control of peptide secondary structure by fullerene amino acids. In an effort to understand the effect of the C60 substituents on the secondary structure of a peptide we have investigated two sequences and the position within a particular sequence. The well characterized model heptad peptides Glu-Ile-Ala-Gln-Leu-Glu-Tyr-Glu-Ile-Ser-Gln-Leu-Glu-Gln-NH2 (2HP, 22 in Table 1) […]NH2 (3HP, 23 in Table 1) were chosen because they are known to form fibers at pH below 7 concomitant with β-sheet formation. To investigate the effects of the presence and C60 on the conformation of the peptide the model peptide 2HP was prepared in which either tyrosine was replaced by Baa (21 in Table 1) or Baa was added to the C-terminus (22 in Table 1). The C-terminus derivative 23 was also prepared for 3HP.
# [7] = test system: HEK-293a cells; test: Cellular uptake by fluorescence microscopy; assay type: cell-based, human
# Experimental: Cellular uptake. An immortalized human embryonic kidney epithelial cancer cell line was used in initial cellular uptake studies. HEK-293a cells were cultured in RMPI 1640 medium supplemented with 10% fetal bovine serum (FBS) in 5% CO2 and 37° C. humidified incubator. The medium was supplemented with penicillin (100 U·mL^−1), streptomycin (100 μg/mL), and glutamine (2 mM). For experiments and microscopy, cells were seeded at 1×10^4 cells per well on 6-well plates and grown for two days in RPMI supplemented with 10%. Cells were incubated with each peptide (40 μM) for 24 hrs at 37° C. After treatment, the cells were washed with RPMI supplemented with 10% FBS and phosphate buffered saline (PBS, 10 mM). Fluorescence was observed by a fluorescent microscope equipped with FITC and red filters.
Compound,inhibition of cell growth [3],inhibition of cell growth [4],Secondary structure with decreasing pH [6],Appearance [6],other results
"Cc1c(C)c2c(c(C)c1O)CCC(C)(C(=O)O)O2 (stereo not drawn) [Trolox, reference compound]",–,–,–,–,IC50 [1]: 480 µM
Baa-(Lys)8-OH [Peptide 24],–,–,–,–,"aggregate size, major (or single) component ([2]; 0.125-2.0 mg/mL): ca. 200 nm; aggregate distribution, single broad aggregate ([2]; 0.25-2.0 mg/mL): 50-350 nm"
Baa-Arg-Gln-Ile-Lys-Ile-Trp-Phe-Gln-Asn-Arg-Arg-Met-Lys-Trp-Lys-Lys-OH (Baa-RQIKIWFQNRRMKWKK-OH; reading uncertain) [Peptide 29],significant inhibition for solutions above 8-14 μM,significant inhibition effect at 31.4 μM,–,–,–
Baa-Glu-Glu-Glu-Glu-Gly-Gly-Gly-Ser-OH ({Baa″}-EEEEGGGS-OH) [Peptide 27],significant inhibition for solutions above 8-14 μM,no cellular inhibition up to 57 μM,–,–,"IC50 [1]: 89 µM; antioxidant activity relative to Trolox ([1]; molar, from IC50): ca. five fold"
Baa-Glu-Ile-Ala-Gln-Leu-Glu-Tyr-Glu-Ile-Ser-Gln-Leu-Glu-Gln-Glu-Ile-Gln-Ala-Leu-Glu-Ser-NH2 ({Baa″}-EIAQLEYEISQLEQEIQALES-NH2) [Peptide 23],no obvious inhibition,no obvious inhibition,α-helix coiled,fibers,"inhibition of cell growth ([5]; IMR32, 100 μg·mL^−1 (29.4 μM)): significant inhibition"
Baa-Glu-Ile-Ala-Gln-Leu-Glu-Tyr-Glu-Ile-Ser-Gln-Leu-Glu-Gln-NH2 ({Baa″}-EIAQLEYEISQLEQ-NH2) [Peptide 22],no obvious inhibition,no obvious inhibition,random coil → α-helix,aggregates,"inhibition of cell growth ([5]; IMR32, up to 37 μM): no inhibition; diameter of non-fibrous particles [6]: approximately 20 nm"
Baa-Lys(FITC)-Glu-Glu-Glu-Glu-Gly-Gly-Gly-Ser-OH ({Baa″-Lys(FITC)}-EEEEGGGS-OH) [Peptide 28],–,–,–,–,"uptake intensity in comparison with the cationic fullerene peptides ([7]; same concentration, cell line not restated): greatly reduced"
Glu-Ile-Ala-Gln-Leu-Glu-Baa-Glu-Ile-Ser-Gln-Leu-Glu-Gln-NH2 [Peptide 21],–,–,β-sheet,fibers^a,diameter of non-fibrous particles [6]: 8-10 nm
"Glu-Ile-Ala-Gln-Leu-Glu-Tyr-Glu-Ile-Ser-Gln-Leu-Glu-Gln-Gln-Glu-Ile-Gln-Ala-Leu-Glu-Ser-NH2 (EIAQLEYEISQLEQQEIQALES-NH2) [Peptide 3HP, parent model heptad peptide without Baa, reference compound]",–,–,random coil → α-helix,fibers,–
"Glu-Ile-Ala-Gln-Leu-Glu-Tyr-Glu-Ile-Ser-Gln-Leu-Glu-Gln-NH2 (EIAQLEYEISQLEQ-NH2) [Peptide 2HP, parent model heptad peptide without Baa, reference compound]",–,–,random coil → α-helix → β-sheet,fibers,–
Lys(FITC)-(Lys)8-OH [reference compound],–,–,–,–,"cellular uptake / localization by fluorescence ([7]; 40 μM, 24 hrs, 37° C.): no uptake; Active Cellular Uptake ([7]; HEK-293a cells): No"
